{"source": "PubChem BioAssay (NCI)", "note": "Several values for one entry are separate records, joined by “and”; a condition that tells them apart may be missing. Identical values can stand only once.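 Grown in 96-well plates, cells were treated for 48 hours with each compound at five concentrations. Insufficient inhibition: endpoint recorded as highest concentration tested. Here, GI50 denotes the concentration required for 50% inhibition of growth. TGI denotes the concentration required for complete inhibition of growth.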 Where a SMILES comes first, the peptide text is derived from it. [ ]: non-standard residue; d: D form. The star is where a group is joined. X13 = OC[C@H](CC1CCCCC1)N*; Aib = CC(C)(N)C(=O)O"}
{"test_system": "MDA-MB-468 breast", "test": "NCI anticancer screen, dose series, 48 h"}
{"smiles": "CN1CCN(Cc2ccc(NC(=O)c3cncc(C#Cc4c(N)ncc5ccc(C#N)cc45)c3)cc2C(F)(F)F)CC1", "GI50": "2.89 µM", "TGI": "11.5 µM"}
{"smiles": "O=C(CCCn1c2c(sc3ccccc32)c(=O)n2nnc(-c3ccccc3)c12)NCCc1cnc[nH]1", "GI50": "0.664 µM", "TGI": "1.94 µM"}
{"smiles": "COc1ccc(-c2cc(/C=C3\\C(=O)Nc4cc(Cl)ccc43)[nH]n2)cc1", "GI50": "2.62 µM", "TGI": "9.48 µM"}
{"smiles": "CS(=O)(=O)CCNCc1ccc(-c2ccc3ncnc(Nc4ccc(OCc5cccc(F)c5)c(Cl)c4)c3c2)o1", "GI50": "0.0518 µM and 0.0571 µM and 0.013 µM", "TGI": "0.818 µM and 0.999 µM and 0.152 µM"}
{"smiles": "CN1CC=C(c2cc(NC(=O)Nc3ccc(Oc4ccnc(NC(=O)C5CC5)c4)c(F)c3)cc(C(F)(F)F)c2)CC1", "GI50": "0.286 µM", "TGI": "1.99 µM"}
{"smiles": "CNCc1cccc2c1OCCCCCCC(C)(O)CC(C)(C)S(=O)(=O)c1ccc(cc1)-c1cnc(N)c(n1)C(=O)N2", "note": "(stereo unspecified)", "GI50": "0.196 µM", "TGI": "1.16 µM"}
{"smiles": "NC(=O)c1cccc2c(N[C@H](CN3CCC3)c3ccc(Cl)c(C(F)(F)F)c3)ncnc12", "GI50": "0.108 µM", "TGI": "1.28 µM"}
{"smiles": "COc1ccc2c(c1)N(Cc1ccc(Cl)cc1)CCC2N1CCCC1=O", "note": "(stereo unspecified)", "GI50": "3.41 µM", "TGI": "19.9 µM"}
{"smiles": "Oc1c(C(Nc2ccccn2)c2cccc(Oc3ccccc3)c2)ccc2cccnc12", "note": "(stereo unspecified)", "GI50": "0.441 µM", "TGI": "8.92 µM"}
{"smiles": "CNC(=O)c1nn(C)c2c1C(C)(C)Cc1cnc(Nc3cccc(N4CCN(C)CC4)c3)nc1-2", "GI50": "0.348 µM", "TGI": "3.3 µM"}
{"smiles": "COC1=CC(c2ccc[nH]2)=N/C1=C\\c1[nH]c(C)c(C(=O)CCC(=O)Oc2ccc3c(c2)CCC2C3CC[C@]3(C)[C@@H](O)CC[C@@H]23)c1C", "note": "(stereo partly specified)", "GI50": "2.52 µM", "TGI": "39.8 µM"}
{"smiles": "O=C(c1ccccc1)C(Cl)C(Cl)c1ccccc1", "note": "(stereo unspecified)", "GI50": "1.38 µM", "TGI": "4.31 µM"}
{"smiles": "CC(=O)NC(C)(C)C(=O)N[C@@H](C)C(=O)NC(C)(C)C(=O)N[C@@H](C)C(=O)NC(C)(C)C(=O)N[C@@H](C)C(=O)N[C@@H](CCC(N)=O)C(=O)NC(C)(C)C(=O)N[C@H](C(=O)NC(C)(C)C(=O)NCC(=O)N[C@@H](CC(C)C)C(=O)NC(C)(C)C(=O)N1CCC[C@H]1C(=O)N[C@H](C(=O)NC(C)(C)C(=O)NC(C)(C)C(=O)N[C@@H](CCC(N)=O)C(=O)N[C@@H](CCC(N)=O)C(=O)N[C@H](CO)CC1CCCCC1)C(C)C)C(C)C", "note": "(Ac-[Aib]A[Aib]A[Aib]AQ[Aib]V[Aib]GL[Aib]PV[Aib][Aib]QQ-X13)", "GI50": "0.665 µM", "TGI": "> 4.35 µM"}
{"smiles": "CS(=O)(=O)N1CCC(n2c(=O)c(Oc3ccc(F)cc3F)cc3cnc(NC4CCOCC4)nc32)CC1", "GI50": "> 25 µM", "TGI": "> 25 µM"}
{"smiles": "CN(C)C1CCN(Cc2ccc(NC(=O)c3cncc(C#Cc4cnc(N)c5ncccc45)c3)cc2C(F)(F)F)CC1", "GI50": "6.49 µM", "TGI": "16.5 µM"}
{"smiles": "N#Cc1c(NCc2ccccc2)nc(NCc2ccccc2)c(C#N)c1-c1ccc(Cl)cc1", "GI50": "> 50 µM", "TGI": "> 50 µM"}
{"smiles": "CCn1c(-c2nonc2N)nc2c(C#CC(C)(C)O)ncc(OC3CCNCC3)c21", "GI50": "0.267 µM", "TGI": "10.4 µM"}
{"smiles": "C[C@@H](N)COc1ccc(-c2cnc3ccc(N[C@H](C)c4cccc(F)c4)nn23)cc1", "GI50": "1.13 µM", "TGI": "2.67 µM"}
{"smiles": "COC(=O)c1ccc2nc(-c3cc4ccccc4n3C)n(CCCCOc3cc4c(cc3OC)C(=O)N3CCC[C@H]3C=N4)c2c1", "GI50": "0.356 µM", "TGI": "1.26 µM"}
{"smiles": "CCCCCCCCCCCCCC[n+]1ccccc1", "GI50": "0.111 µM", "TGI": "0.631 µM"}
{"smiles": "C[C@H](c1ccc(F)cc1CCCC(=O)O)N(c1cc(F)ccc1F)S(=O)(=O)c1ccc(Cl)cc1", "GI50": "17.3 µM", "TGI": "84.7 µM"}
{"smiles": "OCc1ccc(-c2csc(-c3ccc(CO)o3)c2)o1", "GI50": "0.188 µM", "TGI": "0.486 µM"}
{"smiles": "COc1cc(-c2cc3ncccc3c3nc(OCCN(C)C)c4cccnc4c23)cc(OC)c1OC", "GI50": "0.919 µM", "TGI": "5.36 µM"}
{"smiles": "CCC(C)(C)c1cc(O)c(C(C)(C)CC)cc1O", "GI50": "2.11 µM", "TGI": "5.8 µM"}
{"smiles": "Oc1cc(N2CC2)c(O)cc1N1CC1", "GI50": "0.201 µM", "TGI": "1.27 µM"}
{"smiles": "CC(c1cc(Cl)ccc1O)c1cc(Cl)ccc1O", "GI50": "2.98 µM", "TGI": "9.47 µM"}
{"smiles": "N#CC1C[C@@H]2CC3(CCC2CN1C(=O)c1ccccc1)OCCO3", "note": "(stereo partly specified)", "GI50": "> 100 µM", "TGI": "> 100 µM"}
{"smiles": "Cc1ccccc1C1=C(c2cn(C)c3ccccc23)C(=O)NC1=O", "GI50": "15.5 µM", "TGI": "> 25 µM"}
{"smiles": "CC1=C/C=C/C(=O)O[C@@H]([C@H](C)[C@H](O)[C@@H](C)NC(=O)C(C)C)[C@H](C)/C=C/C(C)=C/[C@H]2C=CCC[C@@]2(C)\\C=C\\1", "GI50": "0.11 µM and 0.0235 µM", "TGI": "6.41 µM"}
{"smiles": "C/C(CCC(=O)O)=N/Nc1ccc([N+](=O)[O-])cc1", "GI50": "> 100 µM", "TGI": "> 100 µM"}
{"smiles": "O=C([O][Hg][c]1ccccc1)c1ccccc1", "GI50": "0.435 µM", "TGI": "1.94 µM"}
{"smiles": "CCN1CCC(CC(=O)Nc2n[nH]c3nnc(-c4cccc(F)c4F)cc23)CC1", "GI50": "3.45 µM", "TGI": "> 23 µM"}
{"smiles": "O=C(/C=C/C12c3ccccc3C(c3ccccc31)C1C(=O)N(c3ccc(Cl)cc3)C(=O)C12)c1ccccn1", "note": "(stereo unspecified)", "GI50": "0.398 µM"}
{"smiles": "Cc1ccc(F)c(NC(=O)Nc2ccc(-c3cccc4[nH]nc(N)c34)cc2)c1", "GI50": "2.37 µM and 1.86 µM", "TGI": "5.28 µM and 4.61 µM"}
{"smiles": "CN1CCN(C(=O)[C@@]2(C)CC[C@]3(C)CC[C@]4(C)C(=CC[C@@H]5[C@@]6(C)CCC(=O)NC(C)(C)[C@@H]6CC[C@]54C)[C@@H]3C2)CC1", "GI50": "1.22 µM", "TGI": "2.82 µM"}
{"smiles": "Cc1ccc(-c2nc3nc(-c4ccc(F)cc4)nc(N4CCNCC4)c3o2)cc1", "GI50": "1.74 µM", "TGI": "3.38 µM"}
{"smiles": "CCCCCCC1N=C(N)N=C(N)N1c1cccc(Cl)c1", "note": "(stereo unspecified)", "GI50": "0.122 µM", "TGI": "0.936 µM"}
{"smiles": "CNS(=O)(=O)OCC1OC(n2cnc3cncnc32)C(O)C1O", "note": "(stereo unspecified)", "GI50": "> 100 µM", "TGI": "> 100 µM"}
{"smiles": "Cc1ccc(C2=Nn3c(nnc3-c3ccccc3)SC2)cc1", "GI50": "1.69 µM", "TGI": "8.08 µM"}
{"smiles": "Cc1ccc([P+](Cc2ccccc2)(c2ccccc2)c2ccccc2)cc1", "GI50": "0.517 µM", "TGI": "8.64 µM"}
{"smiles": "Cn1cc(C2=C(c3c4n(c5ccccc35)CCNC4)C(=O)NC2=O)c2ccccc21", "GI50": "3.81 µM", "TGI": "> 20.9 µM"}
